Experiment in all cases: relative viability (nuclei count vs DMSO), 5 days (fraction); higher = more cells survive
Compound in the experiment “Nelarabine + AZD7762”: COc1nc(N)nc2c1ncn2[C@@H]1O[C@H](CO)[C@@H](O)[C@@H]1O [Nelarabine] + NC(=O)Nc1cc(-c2cccc(F)c2)sc1C(=O)N[C@H]1CCCNC1 [AZD7762] (partner 0.2 µM)
A digest of the protocol: (§1)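 Cells from lung cancer lines were seeded into 1536-well plates and, one day later, dosed by pin tool. Treatments were either a single drug or a fixed dose of an anchor drug with five library-drug doses (not always all listed) in √10 steps. After 5 days, nuclei were stained in a one-step fixation (final 0.05% Triton X-100, 1% formaldehyde, 1 ug/ml Hoechst) and counted on 4× images, and relative viability is the treated-to-vehicle nuclei ratio, as the median of duplicate plates.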

Compound in the experiment “Adavosertib + Decitabine”: C=CCn1c(=O)c2cnc(Nc3ccc(N4CCN(C)CC4)cc3)nc2n1-c1cccc(C(C)(C)O)n1 [Adavosertib] + Nc1ncn([C@H]2C[C@H](O)[C@@H](CO)O2)c(=O)n1 [Decitabine] (partner 2 µM)
A digest of the protocol: as §1

Compound in the experiment “Nelarabine + Foretinib”: COc1nc(N)nc2c1ncn2[C@@H]1O[C@H](CO)[C@@H](O)[C@@H]1O [Nelarabine] + COc1cc2c(Oc3ccc(NC(=O)C4(C(=O)Nc5ccc(F)cc5)CC4)cc3F)ccnc2cc1OCCCN1CCOCC1 [Foretinib] (partner 0.25 µM)
A digest of the protocol: as §1

Compound in the experiment “Adavosertib + Bortezomib”: C=CCn1c(=O)c2cnc(Nc3ccc(N4CCN(C)CC4)cc3)nc2n1-c1cccc(C(C)(C)O)n1 [Adavosertib] + CC(C)C[C@H](NC(=O)[C@H](Cc1ccccc1)NC(=O)c1cnccn1)B(O)O [Bortezomib] (partner 0.002 µM)
A digest of the protocol:
as §1

Consider EMC-BAC-2, for which the relative viability turned out to be 1.2 in the experiment with Nelarabine + AZD7762 (first compound 0.01 µM); 1.1 with Nelarabine + AZD7762 (first compound 0.03162 µM); 1.18 with Nelarabine + AZD7762 (first compound 0.1 µM); 1.22 with Nelarabine + AZD7762 (first compound 0.3162 µM); 1.17 in the experiment with Nelarabine + AZD7762 (first compound 1 µM); 0.997 in the experiment with Adavosertib + Decitabine (first compound 0.03162 µM). Besides, the relative viability in the experiment with Adavosertib + Decitabine (first compound 0.1 µM) worked out at 1.08; in the experiment with Adavosertib + Decitabine (first compound 0.3162 µM), 1.04; with Nelarabine + Foretinib (first compound 0.01 µM) it was 1.06; with Nelarabine + Foretinib (first compound 0.03162 µM), 1; in the experiment with Nelarabine + Foretinib (first compound 0.1 µM), 0.913; with Nelarabine + Foretinib (first compound 0.3162 µM) it was 0.975. For the same cell line, the relative viability was 0.963 with Nelarabine + Foretinib (first compound 1 µM); 0.987 in the experiment with Adavosertib + Bortezomib (first compound 0.01 µM); 0.989 with Adavosertib + Bortezomib (first compound 0.03162 µM); 1.06 with Adavosertib + Bortezomib (first compound 0.1 µM); 1.04 with Adavosertib + Bortezomib (first compound 0.3162 µM).

The values are drawn from the supplement of paper PMC10307832.
